Reference: PubChem BioAssay (NCI)
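Grown in 96-well plates, cells were treated for 48 hours with each compound at five concentrations. Insufficient inhibition: endpoint recorded as highest concentration tested. Here, GI50 denotes the concentration required for 50% inhibition of growth. TGI: concentration producing complete growth inhibition.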

Experiments:
Assay in all cases: NCI anticancer screen, dose series, 48 h
LOX IMVI melanoma = tested on: LOX IMVI melanoma
SNB-75 CNS = tested on: SNB-75 CNS
UACC-62 melanoma = tested on: UACC-62 melanoma
HCC-2998 colon = tested on: HCC-2998 colon
SW-620 colon = tested on: SW-620 colon
OVCAR-4 ovarian = tested on: OVCAR-4 ovarian
KM12 colon = tested on: KM12 colon
SK-OV-3 ovarian = tested on: SK-OV-3 ovarian
U251 CNS = tested on: U251 CNS
PC-3 prostate = tested on: PC-3 prostate

Structure (SMILES)	TGI (LOX IMVI melanoma) [µM]	TGI (SNB-75 CNS) [µM]	TGI (UACC-62 melanoma) [µM]	TGI (HCC-2998 colon) [µM]	TGI (SW-620 colon) [µM]	TGI (OVCAR-4 ovarian) [µM]	TGI (KM12 colon) [µM]	TGI (SK-OV-3 ovarian) [µM]	TGI (U251 CNS) [µM]	TGI (PC-3 prostate) [µM]	GI50 (LOX IMVI melanoma) [µM]	GI50 (SNB-75 CNS) [µM]	GI50 (HCC-2998 colon) [µM]	GI50 (SW-620 colon) [µM]	GI50 (OVCAR-4 ovarian) [µM]	GI50 (KM12 colon) [µM]	GI50 (SK-OV-3 ovarian) [µM]	GI50 (U251 CNS) [µM]
Cc1ccc2c(c1)c(=O)c1c(NCCN(C)C)ccc3nnn2c31	4.6	16.9	20.5	17	18	12.9	11.7	37.6	16.9	–	–	–	–	–	–	–	–	–
CCCCCCCCCCCCCCCCOCC(CC(F)(F)P(=O)(O)O)OC(C)=O (centres undefined)	–	> 50	> 50	> 50	> 50	–	> 50	> 50	> 50	> 50	–	–	–	–	–	–	–	–
CCCCc1ccc2[n+](c1)C(C(=O)OCC)=PC2 (centres undefined)	–	> 100	> 100	> 100	> 100	> 100	> 100	> 100	> 100	> 100	–	–	–	–	–	–	–	–
Cc1cccc(NC(=O)CC(=O)N2N=C(N3c4ccccc4Sc4ccccc43)CC2c2ccccc2)c1 (centres undefined)	–	> 100	> 100	> 100	> 100	> 100	> 100	> 100	> 100	> 100	–	–	–	–	–	–	–	–
CN(C)CCCn1c2ccccc2c2cnccc21	52.6	> 100	> 100	–	> 100	> 100	> 100	> 100	> 100	> 100	–	–	–	–	–	–	–	–
O=C1c2cc([N+](=O)[O-])ccc2NC2C(O)c3ccccc3N12 (centres undefined)	> 100	44.8	47.9	> 100	–	55.8	> 100	36	> 100	> 100	–	–	–	–	–	–	–	–
O=c1[nH]c(=O)n(C2CC(O)C(CO)O2)cc1C#Cc1ccc(C(F)(F)F)cc1 (centres undefined)	> 100	> 100	> 100	> 100	> 100	> 100	> 100	> 100	> 100	–	–	–	–	–	–	–	–	–
COc1cc(N=Nc2cccc(S(=O)(=O)O)c2)c(C)cc1N=Nc1ccc(/C=C/c2ccc(N=[N+]([O-])c3ccc(/C=C/c4ccc(N=Nc5cc(C)c(N=Nc6cccc(S(=O)(=O)O)c6)cc5OC)cc4)c(S(=O)(=O)O)c3)cc2S(=O)(=O)O)cc1	> 100	> 100	> 100	> 100	> 100	> 100	> 100	> 100	> 100	–	–	–	–	–	–	–	–	–
C=CCc1c(O)c2ccccc2[nH]c1=O	> 100	> 100	–	> 100	> 100	> 100	> 100	–	> 100	> 100	–	–	–	–	–	–	–	–
CN(C)c1ccc(/C=C(\NC(=O)c2ccccc2)C(=O)Nc2ccccc2C(=O)NN2C(=O)CSC2c2ccc(N(C)C)cc2)cc1 (centres undefined)	> 100	> 100	> 100	21.4	> 100	–	> 100	> 100	> 100	> 100	–	–	–	–	–	–	–	–
CC(C)(C)OC(=O)NC(Cc1ccccc1)C(=O)N[C@H]1c2ccsc2/C(=N/O)[C@H]1O (some centres undefined)	> 100	–	> 100	> 100	> 100	> 100	–	> 100	> 100	> 100	–	–	–	–	–	–	–	–
NC1=NS(=O)(=O)N=C(N)C1=Cc1ccc([N+](=O)[O-])o1	33.2	29.9	30.2	45.8	32.7	34.1	34.5	> 100	> 100	–	–	–	–	–	–	–	–	–
CC(C)=CCN(N=O)c1ncnc2nc[nH]c12	> 100	> 100	–	> 100	> 100	> 100	> 100	> 100	–	> 100	–	–	–	–	–	–	–	–
O=C1C/C(=C\O)C(=O)c2ccccc2N1	> 100	–	> 100	> 100	–	> 100	> 100	> 100	> 100	> 100	–	–	–	–	–	–	–	–
CC1=NNC(N)=N/C1=C/C(Sc1ccc(Cl)cc1)c1cccs1 (centres undefined)	> 100	–	–	26.9	41.7	76.6	23.1	26.4	> 100	27.8	–	–	–	–	–	–	–	–
COc1cc(C(=O)Nc2nnc(S(N)(=O)=O)s2)cc(OC)c1OC	> 100	–	> 100	> 100	> 100	> 100	> 100	> 100	> 100	–	–	–	–	–	–	–	–	–
O=c1c(Cc2ccc(Cl)cc2)nnc2sc(-c3ccc([N+](=O)[O-])cc3)nn12	> 100	–	34	42.6	80.8	> 100	> 100	> 100	> 100	47.2	–	–	–	–	–	–	–	–
O=C(C[C@@H]1NCCC[C@H]1O)Cn1cnc2cc(Br)c(Cl)cc2c1=O	0.0268	0.338	–	0.352	0.209	0.0809	0.101	0.813	0.256	1.4	–	–	–	–	–	–	–	–
O=C1CCSSCCC(=O)Nc2ccccc2N1	> 100	–	> 100	–	> 100	> 100	> 100	> 100	> 100	> 100	–	–	–	–	–	–	–	–
Cc1ccc2ccccc2c1CC1S(=O)(=O)OCCOS1(=O)=O	22.2	–	–	15.8	–	23.6	29.3	–	24.7	24.3	–	–	–	–	–	–	–	–
COc1cc(S(=O)(=O)Nc2nc(-c3ccc(N4C(=O)/C(=C/c5ccccc5)N=C4c4ccccc4)cc3)cs2)ccc1Cl	> 100	> 100	50.8	–	> 100	> 100	> 100	> 100	> 100	> 100	–	–	–	–	–	–	–	–
CCOC(=O)c1c2c(n(C)c1-c1ccccc1)C(=O)C(C)=CC2=O	13.2	28.8	23.9	–	19.8	20.3	22.5	30.4	22.8	25.5	–	–	–	–	–	–	–	–
C/C(=N\N(C)C)C(CN(C)C)C(c1ccccc1)c1c(O)c2ccccc2oc1=O (centres undefined)	> 100	> 100	> 100	> 100	> 100	> 100	> 100	> 100	> 100	–	–	–	–	–	–	–	–	–

Structure (SMILES)	TGI (LOX IMVI melanoma) [µM]	TGI (SNB-75 CNS) [µM]	TGI (UACC-62 melanoma) [µM]	TGI (HCC-2998 colon) [µM]	TGI (SW-620 colon) [µM]	TGI (OVCAR-4 ovarian) [µM]	TGI (KM12 colon) [µM]	TGI (SK-OV-3 ovarian) [µM]	TGI (U251 CNS) [µM]	TGI (PC-3 prostate) [µM]	GI50 (LOX IMVI melanoma) [µM]	GI50 (SNB-75 CNS) [µM]	GI50 (HCC-2998 colon) [µM]	GI50 (SW-620 colon) [µM]	GI50 (OVCAR-4 ovarian) [µM]	GI50 (KM12 colon) [µM]	GI50 (SK-OV-3 ovarian) [µM]	GI50 (U251 CNS) [µM]
CC(=O)N[C@@H](Cc1ccc(O)cn1)C(=O)NCc1ccc2c(c1)OCO2	> 100	–	> 100	> 100	> 100	> 100	> 100	> 100	> 100	> 100	–	–	–	–	–	–	–	–
CC(=O)O[C@]12CCCCCCC1C1(O)C(O)CCC[C@H]12 (some centres undefined)	> 100	> 100	> 100	–	> 100	> 100	> 100	> 100	> 100	–	–	–	–	–	–	–	–	–
CC1=NN(C(=O)CC(=O)Nc2cccc(Cl)c2)C(=O)C1N=Nc1ccc(S(N)(=O)=O)cc1 (centres undefined)	> 100	> 100	> 100	> 100	> 100	> 100	> 100	> 100	> 100	–	–	–	–	–	–	–	–	–
COc1cc(C2SCC(=O)N2NC(=O)c2ccc(NC(C)=O)cc2)cc(OC)c1OC (centres undefined)	–	> 100	> 100	> 100	> 100	> 100	> 100	> 100	> 100	–	–	–	–	–	–	–	–	–
C#CC(C)(C)Oc1cc(OC)c2c(=O)c3ccccc3n(C)c2c1	–	70.1	32	> 100	> 100	41.8	37.8	54.9	> 100	40.8	–	–	–	–	–	–	–	–
c1ccc2c3c(ccc2c1)CSCc1ccc2ccccc2c1-3	> 100	> 100	> 100	> 100	–	> 100	> 100	–	> 100	> 100	–	–	–	–	–	–	–	–
Cc1ncc([N+](=O)[O-])n1CCN=[N+]=[N-]	–	> 100	> 100	–	> 100	> 100	> 100	> 100	> 100	> 100	–	–	–	–	–	–	–	–
Cc1cs/c(=N\C(P(=O)(O)O)P(=O)(O)O)n1C	> 100	> 100	> 100	> 100	> 100	–	> 100	> 100	> 100	> 100	–	–	–	–	–	–	–	–
CCCCCCCCCCCCOC1C(COCCN2CCCC2)OC2OC(C)(C)OC21 (centres undefined)	2.77	3.75	3.36	–	–	7.6	–	3.33	3.12	3.16	–	–	–	–	–	–	–	–
O=C(c1cccs1)N(C(=S)N1CCN(c2ccccc2)CC1)c1ccccc1	> 100	> 100	> 100	–	> 100	> 100	> 100	> 100	> 100	–	–	–	–	–	–	–	–	–
CCOC(=O)C1C/C(C)=C(/C)SCCCS1 (centres undefined)	> 100	–	> 100	> 100	> 100	> 100	> 100	> 100	> 100	> 100	–	–	–	–	–	–	–	–
COc1ccccc1C1C(C#N)=C(N)OC2=C1C(=O)CCC2 (centres undefined)	> 100	> 100	–	> 100	> 100	> 100	> 100	> 100	> 100	–	> 100	> 100	> 100	> 100	> 100	> 100	> 100	> 100
O=[N+]([O-])c1ccc2nc3ccc([N+](=O)[O-])cn3c2c1	> 100	> 100	> 100	–	> 100	> 100	> 100	> 100	> 100	> 100	–	–	–	–	–	–	–	–
CC1(C)CC(=O)C(/C=N/c2nc(-c3ccc(Br)cc3)cs2)=C(O)C1	52.4	72.8	–	80.9	> 100	> 100	> 100	> 100	> 100	> 100	–	–	–	–	–	–	–	–
O=C1CSC2(CC(/C=C/C=C/c3ccccc3)=NN2c2cccc(S(=O)(=O)O)c2)N1c1nc2ccccc2s1 (centres undefined)	42.2	> 100	> 100	> 100	> 100	> 100	> 100	–	74.4	> 100	–	–	–	–	–	–	–	–
c1ccc(C2=NN3CN(N2)c2ccccc2OCCCOc2ccccc23)cc1	> 100	> 100	> 100	–	> 100	> 100	> 100	–	> 100	–	–	–	–	–	–	–	–	–
CCOC(=O)/C=C1\Nc2ccccc2C12CCc1c([nH]c3ccccc13)C2C(=O)OCC (centres undefined)	> 100	–	> 100	> 100	> 100	> 100	> 100	> 100	> 100	> 100	–	–	–	–	–	–	–	–
COc1cc(C2C(Cl)C(=O)N2c2ccc(Br)cc2)cc(I)c1O (centres undefined)	> 100	> 100	> 100	–	> 100	> 100	> 100	> 100	> 100	> 100	–	–	–	–	–	–	–	–
COC(=O)C12CC(C3CC31)C1CC12 (centres undefined)	> 100	–	> 100	> 100	> 100	> 100	–	> 100	> 100	–	–	–	–	–	–	–	–	–
Oc1ccc(-c2c3c(nc4c2CCc2ccc(Br)cc2-4)-c2cc(Br)ccc2CC3)cc1	–	54.9	44.2	40.1	–	48	42.5	30.6	34.2	31.9	–	–	–	–	–	–	–	–
Cc1cnc(Cl)nc1C(C#N)c1nc2ccccc2n1C (centres undefined)	> 100	69.3	–	–	> 100	> 100	> 100	> 100	45.5	–	–	–	–	–	–	–	–	–
CCCCCCCCCCCCC(=O)NCC(=O)NC(Cc1ccccc1)C(=O)Oc1ccc([N+](=O)[O-])cc1 (centres undefined)	> 100	> 100	> 100	> 100	> 100	–	> 100	–	–	> 100	–	–	–	–	–	–	–	–
CC(C)=CC(=O)O[C@@H]1CC(C)(C)CC2C3=CCC4[C@]56CC[C@](O)(OC5)C(C)(C)C6CC[C@@]4(C)C3(C)CC[C@]21C(=O)O (some centres undefined)	44.4	–	> 100	> 100	> 100	> 100	> 100	> 100	> 100	> 100	–	–	–	–	–	–	–	–
